Measurements taken from ChEMBL document CHEMBL3885881, “DrugMatrix”.

Organism: Rattus norvegicus
Assay: DrugMatrix - Regimen: Daily Repeat
Format: toxicity, organism-based, Sprague-Dawley
Design: regimen Daily Repeat, gender Male, age 6-8 weeks
Conditions: in vivo, po, route oral GAVAGE, […]; for ABSOLUTE BASOPHIL / ABSOLUTE EOSINOPHIL / ABSOLUTE LYMPHOCYTE / ABSOLUTE MONOCYTE / ABSOLUTE SEGMENTED NEUTROPHIL / BASOPHIL / EOSINOPHIL / ERYTHROCYTE COUNT / HEMATOCRIT / HEMOGLOBIN / LEUKOCYTE COUNT / LYMPHOCYTE / MEAN CORPUSCULAR HEMOGLOBIN / MEAN CORPUSCULAR HEMOGLOBIN CONCENTRATION / MONOCYTE / NEUTROPHIL / NUCLEATED RED BLOOD CELLS / PLATELET COUNT: tissue Blood; for ALANINE AMINOTRANSFERASE / ALBUMIN / ALKALINE PHOSPHATASE / ASPARTATE AMINOTRANSFERASE / BLOOD UREA NITROGEN / CARBON DIOXIDE / CHLORIDE / CHOLESTEROL / CREATINE PHOSPHOKINASE / CREATININE / GLUCOSE / LACTATE DEHYDROGENASE / LIPASE / PHOSPHORUS / POTASSIUM / SODIUM / TOTAL BILIRUBIN / TOTAL PROTEIN / URIC ACID: tissue Plasma
[1] = 0 mg/kg, 72 h, dose level Control, time 3 day
[2] = 0 mg/kg, 120 h, dose level Control, time 5 day
[3] = 0.2 mg/kg, 72 h, dose level Low, time 3 day

## CCOC(=O)C1=C(COCCN)NC(C)=C(C(=O)OC)C1c1ccccc1Cl (stereo not given) [AMLODIPINE]
[1]
  ABSOLUTE BASOPHIL: 0 CELLS/uL
  ABSOLUTE EOSINOPHIL: 70.67 CELLS/uL
  ABSOLUTE LYMPHOCYTE: 12761.5 CELLS/uL
  ABSOLUTE MONOCYTE: 214.17 CELLS/uL
  ABSOLUTE SEGMENTED NEUTROPHIL: 987 CELLS/uL
  BASOPHIL: 0%
  EOSINOPHIL: 0.5%
  ERYTHROCYTE COUNT: 5.61 x10E6/uL
  HEMATOCRIT: 35.22%
  HEMOGLOBIN: 13.57 G/DL
  LEUKOCYTE COUNT: 14.03 x10E3/uL
  LYMPHOCYTE: 91%
  MEAN CORPUSCULAR HEMOGLOBIN: 24.25 pg
  MEAN CORPUSCULAR HEMOGLOBIN CONCENTRATION: 38.52 G/DL
  MONOCYTE: 1.5%
  NEUTROPHIL: 7%
  NUCLEATED RED BLOOD CELLS: 0 /100WBC
  PLATELET COUNT: 997.5 x10E3/uL
  ALANINE AMINOTRANSFERASE: 66.5 u/L
  ALBUMIN: 3.98 G/DL
  ALKALINE PHOSPHATASE: 350 u/L
  ASPARTATE AMINOTRANSFERASE: 83.83 u/L
  BLOOD UREA NITROGEN: 12.33 mg/dL
  CARBON DIOXIDE: 30.33 mmol/L
  CHLORIDE: 100 MEQ/L
  CHOLESTEROL: 75 mg/dL
  CREATINE PHOSPHOKINASE: 200 u/L
  CREATININE: 0.17 mg/dL
  GLUCOSE: 170 mg/dL
  LACTATE DEHYDROGENASE: 89.33 u/L
  LIPASE: 10.33 u/L
  PHOSPHORUS: 10.88 mg/dL
  POTASSIUM: 6.13 MEQ/L
  SODIUM: 140.53 MEQ/L
  TOTAL BILIRUBIN: 0.2 mg/dL
  TOTAL PROTEIN: 5.67 G/DL
  URIC ACID: 1.6 mg/dL
[2]
  ABSOLUTE BASOPHIL: 0 CELLS/uL
  ABSOLUTE EOSINOPHIL: 0 CELLS/uL
  ABSOLUTE LYMPHOCYTE: 9526.67 CELLS/uL
  ABSOLUTE MONOCYTE: 134.17 CELLS/uL
  ABSOLUTE SEGMENTED NEUTROPHIL: 922.5 CELLS/uL
  BASOPHIL: 0%
  EOSINOPHIL: 0%
  ERYTHROCYTE COUNT: 5.58 x10E6/uL
  HEMATOCRIT: 34.78%
  HEMOGLOBIN: 13.5 G/DL
  LEUKOCYTE COUNT: 10.58 x10E3/uL
  LYMPHOCYTE: 90.17%
  MEAN CORPUSCULAR HEMOGLOBIN: 24.27 pg
  MEAN CORPUSCULAR HEMOGLOBIN CONCENTRATION: 38.82 G/DL
  MONOCYTE: 1.17%
  NEUTROPHIL: 8.67%
  NUCLEATED RED BLOOD CELLS: 0.17 /100WBC
  PLATELET COUNT: 807.17 x10E3/uL
  ALANINE AMINOTRANSFERASE: 66.83 u/L
  ALBUMIN: 3.73 G/DL
  ALKALINE PHOSPHATASE: 286.17 u/L
  ASPARTATE AMINOTRANSFERASE: 142.33 u/L
  BLOOD UREA NITROGEN: 14.67 mg/dL
  CARBON DIOXIDE: 25.5 mmol/L
  CHLORIDE: 89.17 MEQ/L
  CHOLESTEROL: 75.17 mg/dL
  CREATINE PHOSPHOKINASE: 310.67 u/L
  CREATININE: 0.2 mg/dL
  GLUCOSE: 153 mg/dL
  LACTATE DEHYDROGENASE: 1594 u/L
  LIPASE: 14.83 u/L
  PHOSPHORUS: 11.28 mg/dL
  POTASSIUM: 8.46 MEQ/L
  SODIUM: 126.88 MEQ/L
  TOTAL BILIRUBIN: 0.37 mg/dL
  TOTAL PROTEIN: 5.53 G/DL
  URIC ACID: 1.52 mg/dL
[3]
  ABSOLUTE BASOPHIL: 0 CELLS/uL
  ABSOLUTE EOSINOPHIL: 0 CELLS/uL
  ABSOLUTE LYMPHOCYTE: 9376 CELLS/uL
  ABSOLUTE MONOCYTE: 215 CELLS/uL
  ABSOLUTE SEGMENTED NEUTROPHIL: 975.67 CELLS/uL
  BASOPHIL: 0%
  EOSINOPHIL: 0%
  ERYTHROCYTE COUNT: 5.44 x10E6/uL
  HEMATOCRIT: 34.4%
  HEMOGLOBIN: 13.67 G/DL
  LEUKOCYTE COUNT: 10.57 x10E3/uL
  LYMPHOCYTE: 88.67%
  MEAN CORPUSCULAR HEMOGLOBIN: 25.13 pg
  MEAN CORPUSCULAR HEMOGLOBIN CONCENTRATION: 39.73 G/DL
  MONOCYTE: 2%
  NEUTROPHIL: 9.33%
  NUCLEATED RED BLOOD CELLS: 0 /100WBC
  PLATELET COUNT: 1115 x10E3/uL
  ALANINE AMINOTRANSFERASE: 74.33 u/L
  ALBUMIN: 4 G/DL
  ALKALINE PHOSPHATASE: 391 u/L
  ASPARTATE AMINOTRANSFERASE: 107.33 u/L
  BLOOD UREA NITROGEN: 11 mg/dL
  CARBON DIOXIDE: 28.67 mmol/L
  CHLORIDE: 100.67 MEQ/L
  CHOLESTEROL: 69.67 mg/dL
  CREATINE PHOSPHOKINASE: 1227 u/L
  CREATININE: 0.14 mg/dL
  GLUCOSE: 178 mg/dL
  LACTATE DEHYDROGENASE: 183 u/L
  LIPASE: 11 u/L
  PHOSPHORUS: 10.73 mg/dL
  POTASSIUM: 5.94 MEQ/L
  SODIUM: 141 MEQ/L
  TOTAL BILIRUBIN: 0.2 mg/dL
  TOTAL PROTEIN: 5.73 G/DL
